Several values for one entry are separate records, joined by “and”; a condition that tells them apart may be missing. Equal values may be shown once. Records with an inconclusive call do not appear.
System: CD8F1 mice, subcutaneous mammary adenocarcinoma, T/C%
Assay: NCI In Vivo Anticancer Drug Screen. Data for tumor model Mammary Adenocarcinoma CD8F1 (subcutaneous) in CD8F1
Details: higher = larger tumour
Method in brief: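 Transplantable tumors were established in mice, animals were dosed with compound or vehicle, and survival or tumor size was then measured in both groups. The treated result was divided by the control result.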

[1] = endpoint: mean tumor weight, dose: 1.0 mg/kg/injection, schedule: Q07DX006 (ip), vehicle: saline
[2] = endpoint: mean tumor weight, dose: 2.0 mg/kg/injection, schedule: Q07DX006 (ip), vehicle: saline
[3] = endpoint: median tumor weight (est.), dose: 0.5 mg/kg/injection, schedule: Q07DX005 (ip), vehicle: saline
[4] = endpoint: median tumor weight (est.), dose: 1.0 mg/kg/injection, schedule: Q07DX005 (ip), vehicle: saline
[5] = endpoint: median tumor weight (est.), dose: 2.0 mg/kg/injection, schedule: Q07DX005 (ip), vehicle: saline
[6] = endpoint: median tumor weight (est.), dose: 4.0 mg/kg/injection, schedule: Q07DX005 (ip), vehicle: saline
[7] = endpoint: median tumor weight (est.), dose: 25.0 mg/kg/injection, schedule: Q07DX005 (ip), vehicle: saline
[8] = endpoint: median tumor weight (est.), dose: 50.0 mg/kg/injection, schedule: Q07DX005 (ip), vehicle: saline

With `CC(=O)NC(C=O)OCC=O` (configuration not stated) the T/C (endpoint: median tumor weight change, dose: 62.5 mg/kg/injection, schedule: Q01DX001 (ip), vehicle: water) was 85 % of control, the T/C (endpoint: median tumor weight change, dose: 125.0 mg/kg/injection, schedule: Q01DX001 (ip), vehicle: water) was 118 % of control and the T/C (endpoint: median tumor weight change, dose: 250.0 mg/kg/injection, schedule: Q01DX001 (ip), vehicle: water) was 118 % of control. The T/C (endpoint: median tumor weight change, dose: 500.0 mg/kg/injection, schedule: Q01DX001 (ip), vehicle: water) was 34 % of control.
With `CC1OC(=O)C(C(C)C)NC(=O)C(C(C)C)OC(=O)C(C(C)C)NC(=O)C(C)OC(=O)C(C(C)C)NC(=O)C(C(C)C)OC(=O)C(C(C)C)NC(=O)C(C)OC(=O)C(C(C)C)NC(=O)C(C(C)C)OC(=O)C(C(C)C)NC1=O` (configuration not stated) the T/C (endpoint: mean tumor weight, dose: 1.0 mg/kg/injection, schedule: Q02DX007 (ip), vehicle: saline) was 119 % of control, the T/C [1] was 49 % of control and the T/C (endpoint: mean tumor weight, dose: 2.0 mg/kg/injection, schedule: Q02DX007 (ip), vehicle: saline) was 87 % of control. The T/C [2] was 110 % of control, the T/C (endpoint: mean tumor weight, dose: 4.0 mg/kg/injection, schedule: Q02DX007 (ip), vehicle: saline) was 97 % of control and the T/C (endpoint: mean tumor weight, dose: 4.0 mg/kg/injection, schedule: Q07DX006 (ip), vehicle: saline) was 165 % of control. The T/C (endpoint: mean tumor weight, dose: 8.0 mg/kg/injection, schedule: Q02DX007 (ip), vehicle: saline) was 103 % of control, the T/C (endpoint: mean tumor weight, dose: 8.0 mg/kg/injection, schedule: Q07DX006 (ip), vehicle: saline) was 84 % of control and the T/C (endpoint: mean tumor weight, dose: 16.0 mg/kg/injection, schedule: Q02DX007 (ip), vehicle: saline) was 116 % of control. The T/C (endpoint: mean tumor weight, dose: 16.0 mg/kg/injection, schedule: Q07DX006 (ip), vehicle: saline) was 70 % of control, the T/C (endpoint: median tumor weight (est.), dose: 1.25 mg/kg/injection, schedule: Q07DX005 (ip), vehicle: saline with Tween-80) was 69 % of control and the T/C (endpoint: median tumor weight (est.), dose: 2.5 mg/kg/injection, schedule: Q07DX005 (ip), vehicle: saline with Tween-80) was 34 % of control. The T/C (endpoint: median tumor weight (est.), dose: 5.0 mg/kg/injection, schedule: Q07DX005 (ip), vehicle: saline with Tween-80) was 86 % of control, the T/C (endpoint: median tumor weight (est.), dose: 10.0 mg/kg/injection, schedule: Q07DX005 (ip), vehicle: saline with Tween-80) was 114 % of control and the T/C (endpoint: median tumor weight (est.), dose: 20.0 mg/kg/injection, schedule: Q07DX005 (ip), vehicle: saline with Tween-80) was 74 % of control.
For `CC1=CC2c3cccc4[nH]cc(c34)CC2N(C)C1` (configuration not stated), the T/C (endpoint: median tumor weight change, dose: 25.0 mg/kg/injection, schedule: Q01DX001 (ip), vehicle: suspension in saline) was 115 % of control.
In the case of `COc1cc([C@@H]2c3cc4c(c(O)c3C[C@H]3COC(=O)[C@@H]32)OCO4)cc(OC)c1O`, the T/C [3] was 275 % of control, the T/C [4] was 85 % of control and the T/C [5] was 56 % of control. The T/C [6] was 26 % of control and the T/C (endpoint: median tumor weight (est.), dose: 8.0 mg/kg/injection, schedule: Q07DX005 (ip), vehicle: saline) was 27 % of control.
With `CC(=O)Oc1ccccc1O` the T/C (endpoint: median tumor weight change, dose: 62.5 mg/kg/injection, schedule: Q01DX001 (ip), vehicle: saline + Tween-80 + alcohol) was 50 % of control, the T/C (endpoint: median tumor weight change, dose: 125.0 mg/kg/injection, schedule: Q01DX001 (ip), vehicle: saline + Tween-80 + alcohol) was 57 % of control and the T/C (endpoint: median tumor weight change, dose: 250.0 mg/kg/injection, schedule: Q01DX001 (ip), vehicle: saline + Tween-80 + alcohol) was 58 % of control.
`C[C@H]1C[C@@H]2[C@H]([C@@H](O)C[C@@]3(C)[C@H]2CC[C@]3(O)C(=O)CO)[C@@]2(C)C=CC(=O)C=C12` was tested, and the T/C (endpoint: median tumor weight (est.), dose: 6.25 mg/kg/injection, schedule: Q07DX005 (ip), vehicle: Klucel (hydroxypropylcellulose) (HPC)) was 70 % of control, the T/C (endpoint: median tumor weight (est.), dose: 12.5 mg/kg/injection, schedule: Q07DX005 (ip), vehicle: Klucel (hydroxypropylcellulose) (HPC)) was 63 % of control and the T/C (endpoint: median tumor weight (est.), dose: 25.0 mg/kg/injection, schedule: Q07DX005 (ip), vehicle: Klucel (hydroxypropylcellulose) (HPC)) was 63 % of control. For the same compound, the T/C (endpoint: median tumor weight (est.), dose: 50.0 mg/kg/injection, schedule: Q07DX005 (ip), vehicle: Klucel (hydroxypropylcellulose) (HPC)) was 60 % of control, the T/C (endpoint: median tumor weight (est.), dose: 100.0 mg/kg/injection, schedule: Q07DX005 (ip), vehicle: Klucel (hydroxypropylcellulose) (HPC)) was 53 % of control and the T/C (endpoint: median tumor weight (est.), dose: 200.0 mg/kg/injection, schedule: Q07DX005 (ip), vehicle: Klucel (hydroxypropylcellulose) (HPC)) was 28 % of control.
With `C1CN2CCC1CC2` the T/C (endpoint: median tumor weight (est.), dose: 6.25 mg/kg/injection, schedule: Q07DX005 (ip), vehicle: saline with Tween-80) was 111 % of control and the T/C (endpoint: median tumor weight (est.), dose: 12.5 mg/kg/injection, schedule: Q07DX005 (ip), vehicle: saline with Tween-80) was 77 % of control.
With `CO[C@H]1C[C@](C)(O)Cc2cc3c(c(O)c21)C(=O)c1c(O)cc2c(c1C3=O)O[C@@H]1O[C@@]2(C)[C@H](O)[C@@H](N(C)C)[C@@H]1O` the T/C (endpoint: median tumor weight (est.), dose: 7.0 mg/kg/injection, schedule: Q07DX005 (ip), vehicle: saline with Tween-80) was 62 % of control, the T/C (endpoint: median tumor weight (est.), dose: 11.0 mg/kg/injection, schedule: Q07DX005 (ip), vehicle: saline with Tween-80) was 60 % of control and the T/C (endpoint: median tumor weight (est.), dose: 16.0 mg/kg/injection, schedule: Q07DX005 (ip), vehicle: saline with Tween-80) was 75 % of control. The T/C (endpoint: median tumor weight (est.), dose: 24.0 mg/kg/injection, schedule: Q07DX005 (ip), vehicle: saline with Tween-80) was 64 % of control and the T/C (endpoint: median tumor weight (est.), dose: 48.0 mg/kg/injection, schedule: Q07DX005 (ip), vehicle: saline with Tween-80) was 10 % of control.
For `CC[C@H]1CN2CCc3cc(OC)c(OC)cc3[C@@H]2C[C@@H]1C[C@@H]1c2cc(OC)c(OC)cc2CCN1CCN(CCCl)CCCl`, the T/C (endpoint: mean tumor weight, dose: 2.5 mg/kg/injection, schedule: Q07DX005 (ip), vehicle: Klucel (hydroxypropylcellulose) (HPC)) was 195 % of control, the T/C (endpoint: mean tumor weight, dose: 5.0 mg/kg/injection, schedule: Q07DX005 (ip), vehicle: Klucel (hydroxypropylcellulose) (HPC)) was 181 % of control and the T/C (endpoint: mean tumor weight, dose: 5.0 mg/kg/injection, schedule: Q07DX006 (ip), vehicle: Klucel (hydroxypropylcellulose) (HPC)) was 89 % of control. For the same compound, the T/C (endpoint: mean tumor weight, dose: 10.0 mg/kg/injection, schedule: Q07DX005 (ip), vehicle: Klucel (hydroxypropylcellulose) (HPC)) was 160 % of control, the T/C (endpoint: mean tumor weight, dose: 10.0 mg/kg/injection, schedule: Q07DX006 (ip), vehicle: Klucel (hydroxypropylcellulose) (HPC)) was 169 % of control and the T/C (endpoint: mean tumor weight, dose: 20.0 mg/kg/injection, schedule: Q07DX006 (ip), vehicle: Klucel (hydroxypropylcellulose) (HPC)) was 159 % of control.
For `COc1cccc2c1C(=O)c1c(O)c3c(c(O)c1C2=O)C[C@@](O)(C(=O)COC(=O)c1cccnc1)C[C@@H]3OC1CC(N)C(O)C(C)O1` (some centres not stated), the T/C (endpoint: mean tumor weight, dose: 0.5 mg/kg/injection, schedule: Q07DX006 (ip), vehicle: saline) was 114 % of control, the T/C [1] was 53 % of control and the T/C [2] was 25 % of control. The T/C [3] was 121 % of control, the T/C [4] was 92 % of control and the T/C [5] was 72 % of control and 75 % of control. For the same compound, the T/C [6] was 90 % of control.
In the case of `C[N+](C)(C)c1ncnc2c1ncn2C1CCCO1` (configuration not stated), the T/C (endpoint: median tumor weight (est.), dose: 12.5 mg/kg/injection, schedule: Q07DX005 (ip), vehicle: saline) was 85 % of control, the T/C [7] was 89 % of control and the T/C [8] was 87 % of control. For the same compound, the T/C (endpoint: median tumor weight (est.), dose: 100.0 mg/kg/injection, schedule: Q07DX005 (ip), vehicle: saline) was 92 % of control.
For `COc1cc(C)c2c(c1C=O)Oc1c(c(C)c(O)c3c1C(O)OC3=O)OC2=O` (configuration not stated), the T/C (endpoint: mean tumor weight, dose: 3.12 mg/kg/injection, schedule: Q07DX005 (ip), vehicle: saline) was 42 % of control, the T/C (endpoint: mean tumor weight, dose: 6.25 mg/kg/injection, schedule: Q07DX005 (ip), vehicle: saline) was 49 % of control and the T/C (endpoint: mean tumor weight, dose: 25.0 mg/kg/injection, schedule: Q07DX005 (ip), vehicle: saline) was 168 % of control. The T/C (endpoint: mean tumor weight, dose: 50.0 mg/kg/injection, schedule: Q07DX005 (ip), vehicle: saline) was 61 % of control, the T/C (endpoint: median tumor weight (est.), dose: 3.12 mg/kg/injection, schedule: Q07DX005 (ip), vehicle: saline) was 97 % of control and the T/C (endpoint: median tumor weight (est.), dose: 3.12 mg/kg/injection, schedule: Q07DX005 (ip), vehicle: suspension in saline) was 89 % of control. The T/C (endpoint: median tumor weight (est.), dose: 6.25 mg/kg/injection, schedule: Q07DX005 (ip), vehicle: saline) was 114 % of control, the T/C (endpoint: median tumor weight (est.), dose: 6.25 mg/kg/injection, schedule: Q07DX005 (ip), vehicle: suspension in saline) was 104 % of control and the T/C (endpoint: median tumor weight (est.), dose: 12.5 mg/kg/injection, schedule: Q07DX005 (ip), vehicle: suspension in saline) was 94 % of control. The T/C [7] was 75 % of control, the T/C (endpoint: median tumor weight (est.), dose: 25.0 mg/kg/injection, schedule: Q07DX005 (ip), vehicle: suspension in saline) was 96 % of control and the T/C [8] was 96 % of control. For the same compound, the T/C (endpoint: median tumor weight (est.), dose: 50.0 mg/kg/injection, schedule: Q07DX005 (ip), vehicle: suspension in saline) was 88 % of control and the T/C (endpoint: median tumor weight (est.), dose: 100.0 mg/kg/injection, schedule: Q07DX005 (ip), vehicle: suspension in saline) was 90 % of control.
In the case of `COc1ccc(C[C@H](N)C(=O)NC2C(CO)OC(n3cnc4c(N(C)C)ncnc43)C2O)cc1` (some centres not stated), the T/C (endpoint: median tumor weight (est.), dose: 48.0 mg/kg/injection, schedule: Q07DX005 (ip), vehicle: saline) was 90 % of control, the T/C (endpoint: median tumor weight (est.), dose: 96.0 mg/kg/injection, schedule: Q07DX005 (ip), vehicle: saline) was 63 % of control and the T/C (endpoint: median tumor weight (est.), dose: 192.0 mg/kg/injection, schedule: Q07DX005 (ip), vehicle: saline) was 62 % of control. The T/C (endpoint: median tumor weight (est.), dose: 384.0 mg/kg/injection, schedule: Q07DX005 (ip), vehicle: saline) was 16 % of control.
With `NC(C(=O)O)c1ccc(CBr)cc1` (configuration not stated) the T/C (endpoint: median tumor weight change, dose: 125.0 mg/kg/injection, schedule: Q01DX001 (ip), vehicle: saline with Tween-80) was 106 % of control.
